Patent US10245249B2, “Pharmaceutical compositions comprising nitroxyl donors” (Cardioxyl Pharmaceuticals, Inc., priority 2013, dated 2019)

Assays:
dogs = test: Toxicological profile of compositions formulated at pH 4 or pH 6, 24 hour infusion at 3 μg/kg/min; type: in vivo; conditions: FIG. 4; for effect of increasing infusate pH from approximately 4 to approximately 6 on toxicology: 1:1 molar donor:CAPTISOL, infused at 3 μg/kg/min
Method: For samples at a pH of 4, the compositions were prepared by admixing a 1:1 molar ratio of the nitroxyl donor:CAPTISOL®, lyophilizing the admixture, then diluting the lyophilized admixture into D5W. For samples at a pH of 6, the compositions were prepared by admixing a 1:1 molar ratio of the nitroxyl donor:CAPTISOL®, lyophilizing the admixture, then diluting the lyophilized admixture into D5W with 5 mM potassium phosphate. Compounds were infused at a rate of 3 μg/kg/min.

[1] = test system: patients with systolic heart failure; conditions: cited from earlier work
normal canines = test: Hemodynamic efficacy in normal canines (pressure-volume loop analysis); type: in vivo, beagle dogs; conditions: i.v. infusion, Dose Rate (μmol/kg/min): CXL-1020 100, (1) 50, (2) 100, (83) 65, (84) 77
Method: The cardiovascular effects of nitroxyl donors were examined by means of pressure-volume (PV) curve (loops) analysis in conscious, sling-restrained beagle dogs. Animals were allowed free access to drinking water and a commercial canine diet under standard laboratory conditions. Fluorescent lighting was provided via an automatic timer for approximately 12 hours per day. On occasion, the dark cycle was interrupted intermittently due to study-related activities. Temperature and humidity were monitored and recorded daily and maintained to the maximum extent possible between 64° F. and 84° F. and 30% to 70%, respectively. The dogs were acclimated for a period of at least 1 week prior to surgery. Following surgery and recovery the animals were acclimated to sling restraint for a period up to 4.5 hours. Animals were fasted overnight prior to surgery. An indwelling venous catheter was placed in peripheral vein (e.g., cephalic) for administration of anesthetic. General anesthesia was induced intravenously (bolus) with buprenorphine (about 0.015 mg/kg) followed by an intravenous bolus of propofol (about 6 mg/kg). Additionally, a prophylactic antibiotic (cefazolin 20 to 50 mg/kg via i.v.) was given upon induction. […] Anesthesia was maintained with inhaled isoflurane (1% to 3%). Once a stable (surgical) plane of anesthesia had been established, a left-thoracotomy was performed (under strict aseptic conditions) and each animal was chronically instrumented with sono-micrometry crystals providing left-ventricular (LV) dimensions/volume. Additionally, a fluid-filled catheter and a solid-state monometer were placed in the left ventricle for pressure monitoring. A fluid-filled catheters was placed in the right ventricle (RV) and the aorta (Ao) for pressure monitoring/test article administration. […] The catheters/wires were aseptically tunneled and externalized between the scapulae. Over the course of the study, fluid-filled catheters were regularly (at least once weekly) flushed with a locking-solution in order to prevent both clotting and bacterial growth (2-3 mL of Taurolidine-Citrate solution, TCS-04; Access Technologies). Following the cardiovascular instrumentation, the right jugular vein was carefully exposed and cannulated with a bipolar pacing lead/catheter ([…]® Novus; Medtronic). Under fluoroscopic guidance, this pacing lead was advanced normograde into the right ventricle and actively affixed (screwed in) to the apical endocardium. The proximal end of the lead was secured to the pacing device (Kappa 900; Medtronic). Subsequently, the pacemaker was placed/secured in a subcutaneous pocket in the neck. Considering that the heart was exposed via a thoracotomy, a bipolar pacing wire was secured in the right ventricular mid-myocardium. This pacing lead was tunneled/externalized between the scapulae, and used in conjunction with an external impulse generator/pacemaker. The implanted endocardial pacemaker was used as a back-up to the external/epicardial pacemaker. Prior to closure of the chest from the thoracotomy, a chest tube was placed for drainage of any fluid and/or gas that accumulated from the surgical procedure. The tube was aspirated twice daily until the amount of fluid removed was less than 35 mL per aspiration in an approximately 24 hour period. The chest tube was then removed. All animals were administered a prophylactic antibiotic (cefazolin 20 to 50 mg/kg via i.v.) and pain medication (meloxicam at about 0.2 mg/kg via i.v.). If necessary, an additional analgesic was also administered which included a fentanyl patch (25 to 50 mcg/hour). All surgical incisions were closed in layers; the underlying musculature was closed with absorbable sutures and the skin was closed with staples. Following surgery, the animals were allowed to recover for at least 14 days. Cephalexin (20 to 50 mg/kg) was administered orally BID for at least 7 days and meloxicam (0.1 mg/kg) was administered SID orally or subcutaneously for at least 2 days after surgery. […]

[2] = In vitro stability (half-life) in human plasma; type: in vitro ADME; conditions: human plasma pH 7.4 with anticoagulant, 37° C.; for T1/2 (minutes) Human: 5 μM; for half-life at 5 μM: male, read-out: T1/2 (minutes) Human
Method: (§1) Certain compounds from Tables 1 and 2 and CXL-1020 were tested for their stability in phosphate buffered saline (PBS) and plasma. The assay system comprised (i) PBS, or plasma from rat, dog or human (at least 3 donors, male, pooled) at pH 7.4, and (ii) for tests conducted in plasma, an anticoagulant (sodium heparin or sodium citrate). Each test compound (5 μM) was incubated in PBS or plasma at 37° C. on a THERMOMIXER® with shaking. Three samples (n=3) were taken at each of seven sampling time points: 0, 10, 30, 60, 90, 180 and 360 minutes. The samples were immediately combined with 3 volumes (i.e., 3 times the volume of PBS or plasma) of acetonitrile containing 1% formic acid and an internal standard to terminate the reaction. AB SCIEX API 3000 LC-MS/MS analysis of the test compounds was performed without a standard curve. Half-lives (T1/2) of the test compounds were determined from graphs of the percent remaining values using the peak area response ratio. For compounds tested multiple times, the value provided in the Table represents an average of the replicate assays.

[3] = In vitro stability (half-life) in rat plasma; type: in vitro ADME; conditions: male, rat, plasma, pH 7.4, 5 μM, rat plasma pH 7.4 with anticoagulant, 37° C.; read-out: T1/2 (minutes) Rat
Outline: (§2)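 Compounds at 5 μM were incubated at 37° C in PBS or in rat, dog or pooled human plasma (heparin or citrate) at pH 7.4. Triplicates were sampled from 0 to 360 minutes and quenched in acetonitrile/formic acid. LC-MS/MS percent remaining gave T1/2, averaged over replicate runs.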

[4] = In vitro stability (half-life) in phosphate buffered saline (PBS) pH 7.4; type: physicochemical; conditions: pH 7.4, 5 μM, PBS pH 7.4, 37° C., read-out: T1/2 (minutes) PBS
Outline: as §2

[5] = In vitro stability (half-life) in dog plasma; type: in vitro ADME; conditions: male, dog, plasma, pH 7.4, 5 μM, dog plasma pH 7.4 with anticoagulant, 37° C.; read-out: T1/2 (minutes) Dog
Method: as §1

| Compound | effect of increasing infusate pH from approximately 4 to approximately 6 on toxicology (dogs) | improvement of inflammatory profile on increasing infusate pH from 4 to 6 (dogs; dogs) | hemodynamic effects in patients with systolic heart failure ([1]; intravenous aqueous solution at pH=4) | side effects at threshold doses needed to produce hemodynamic effects ([1]; intravenous) | EDV (normal canines) [% Change from Baseline] | ESP (normal canines) [% Change from Baseline] | ESPVR (normal canines) [% Change from Baseline] | HR (normal canines) [% Change from Baseline] | PRSW (normal canines) [% Change from Baseline] | SW (normal canines) [% Change from Baseline] | Tau (normal canines) [% Change from Baseline] | T1/2 (minutes) Human [2] [min] | half-life at 5 μM [3] [min] | half-life at 5 μM [2] [min] | half-life at 5 μM [4] [min] | half-life at 5 μM [5] [min] |
| --- | --- | --- | --- | --- | --- | --- | --- | --- | --- | --- | --- | --- | --- | --- | --- | --- |
| CS(=O)(=O)c1ccccc1S(=O)(=O)NO [CXL-1020, N-hydroxy-2-methanesulfonylbenzene-1-sulfonamide, reference compound] | improved the toxicology | approximately 3 fold | reduced both left and right heart filling pressures and systemic vascular resistance, while increasing cardiac and stroke volume index | unacceptable levels of inflammatory irritation at and distal to the intravenous insertion site | −20.51 ± 7.63 | −17.79 ± 3.09 | 28.25 ± 8.69 | 6.71 ± 4.72 | 12.60 ± 2.96 | −13.96 ± 5.51 | −6.58 ± 4.53 |  |  |  |  |  |
| Cc1ccc(S(=O)(=O)NO)o1 [Compound 1, N-Hydroxy-5-methylfuran-2-sulfonamide] |  |  |  |  | −6 ± 2 | −18 ± 2 | 19 ± 1 | −4 ± 2 | 12 ± 1 | −11 ± 4 | −6 ± 1 | 65 |  |  |  |  |
| CS(=O)(=O)c1cccc(S(=O)(=O)NO)c1 [Compound 2, N-Hydroxy-3-methanesulfonylbenzene-1-sulfonamide] | improved the toxicology |  |  |  | −17.41 ± 1.58 | −15.22 ± 2.39 | 25.87 ± 5.04 | −6.17 ± 5.58 | 12.88 ± 1.12 | −17.56 ± 2.66 | −6.40 ± 7.11 | 37 |  |  |  |  |
| O=S(=O)(NO)c1ccco1 [Compound 83, N-Hydroxyfuran-2-sulfonamide] |  |  |  |  | −16.88 ± 1.69 | −21.99 ± 3.32 | 29.33 ± 8.36 | 2.89 ± 2.94 | 19.79 ± 3.39 | −19.18 ± 6.70 | −10.10 ± 1.56 |  | 43 | 16 | 37 | 38 |
| Cc1ccc(S(=O)(=O)NO)s1 [Compound 84, N-Hydroxy-5-methylthiophene-2-sulfonamide] |  |  |  |  | −10.99 ± 2.33 | −16.85 ± 2.33 | 50.71 ± 8.14 | 4.31 ± 2.98 | 17.70 ± 2.35 | −13.98 ± 1.14 | −9.60 ± 6.06 |  | 65 | 60 | 125 | 55 |
| Cn1ccc(S(=O)(=O)NO)n1 [Compound 85, N-Hydroxy-1-methyl-1H-pyrazole-3-sulfonamide] |  |  |  |  |  |  |  |  |  |  |  |  |  |  | 59 | 72 |
